Reference: ChEMBL document CHEMBL4396926, “Design, Synthesis and Anticancer Evaluation of New Substituted Thiophene-Quinoline Derivatives” (Bioorg Med Chem, 2019)

Key:
HCT-116 [1] = experiment: Cytotoxicity against human HCT116 cells assessed as cell growth inhibition at 3.125 to 100 uM incubated for 72 hrs and measured after 2 hrs by microplate reader based WST-1 assay relative to control; assay type: functional
MCF7 [2] = experiment: Cytotoxicity against human MCF7 cells assessed as increase in growth inhibition by measuring decrease in cell viability incubated for 72 hrs and measured after 2 hrs by microplate reader based WST-1 assay; assay type: functional
HepG2 [3] = experiment: Cytotoxicity against human HepG2 cells assessed as cell growth inhibition at 3.125 to 100 uM incubated for 72 hrs and measured after 2 hrs by microplate reader based WST-1 assay relative to control; assay type: functional
HeLa [4] = experiment: Cytotoxicity against human HeLa cells assessed as cell growth inhibition at 3.125 to 100 uM incubated for 72 hrs and measured after 2 hrs by microplate reader based WST-1 assay relative to control; assay type: functional
HeLa [5] = experiment: Cytotoxicity against human HeLa cells assessed as increase in growth inhibition by measuring decrease in cell viability incubated for 72 hrs and measured after 2 hrs by microplate reader based WST-1 assay; assay type: functional
HCT-116 [6] = experiment: Cytotoxicity against human HCT116 cells assessed as increase in growth inhibition by measuring decrease in cell viability incubated for 72 hrs and measured after 2 hrs by microplate reader based WST-1 assay; assay type: functional
MCF7 [7] = experiment: Cytotoxicity against human MCF7 cells assessed as cell growth inhibition at 3.125 to 100 uM incubated for 72 hrs and measured after 2 hrs by microplate reader based WST-1 assay relative to control; assay type: functional
HepG2 [8] = experiment: Cytotoxicity against human HepG2 cells assessed as increase in growth inhibition by measuring decrease in cell viability incubated for 72 hrs and measured after 2 hrs by microplate reader based WST-1 assay; assay type: functional
DNA topoisomerase II [9] = biological target: T1, DNA topoisomerase II (Homo sapiens, UniProt P11388+Q02880); experiment: Inhibition of DNA topoisomerase 2 in human MCF7 cells at 5 uM incubated for 18 to 24 hrs by kinase assay relative to control; assay type: cell-based
DNA topoisomerase II [10] = biological target: T1, DNA topoisomerase II; experiment: Inhibition of DNA topoisomerase 2 in human MCF7 cells at 0.2 uM incubated for 18 to 24 hrs by kinase assay relative to control; assay type: cell-based
DNA topoisomerase II [11] = biological target: T1, DNA topoisomerase II; experiment: Inhibition of DNA topoisomerase 2 in human MCF7 cells at 25 uM incubated for 18 to 24 hrs by kinase assay relative to control; assay type: cell-based
MCF7 [12] = experiment: Cell cycle arrest in human MCF7 cells assessed as accumulation at G0/G1 phase at IC50 after 24 hrs by propidium iodide staining based FACS analysis (reference value: 67.39%); assay type: functional
MCF7 [13] = experiment: Cell cycle arrest in human MCF7 cells assessed as accumulation at S phase at IC50 after 24 hrs by propidium iodide staining based FACS analysis (reference value: 27.13%); assay type: functional
MCF7 [14] = experiment: Cell cycle arrest in human MCF7 cells assessed as accumulation at pre G1/apoptotic phase at IC50 after 24 hrs by propidium iodide staining based FACS analysis (reference value: 0.66%); assay type: functional
[15] = biological target: Epidermal growth factor receptor (Homo sapiens, UniProt P00533); experiment: Inhibition of EGFR-TK in human MCF7 cells overexpressing EGFR incubated for 18 to 24 hrs by kinase assay; assay type: cell-based
Sequence of Epidermal growth factor receptor (P00533 whole entry): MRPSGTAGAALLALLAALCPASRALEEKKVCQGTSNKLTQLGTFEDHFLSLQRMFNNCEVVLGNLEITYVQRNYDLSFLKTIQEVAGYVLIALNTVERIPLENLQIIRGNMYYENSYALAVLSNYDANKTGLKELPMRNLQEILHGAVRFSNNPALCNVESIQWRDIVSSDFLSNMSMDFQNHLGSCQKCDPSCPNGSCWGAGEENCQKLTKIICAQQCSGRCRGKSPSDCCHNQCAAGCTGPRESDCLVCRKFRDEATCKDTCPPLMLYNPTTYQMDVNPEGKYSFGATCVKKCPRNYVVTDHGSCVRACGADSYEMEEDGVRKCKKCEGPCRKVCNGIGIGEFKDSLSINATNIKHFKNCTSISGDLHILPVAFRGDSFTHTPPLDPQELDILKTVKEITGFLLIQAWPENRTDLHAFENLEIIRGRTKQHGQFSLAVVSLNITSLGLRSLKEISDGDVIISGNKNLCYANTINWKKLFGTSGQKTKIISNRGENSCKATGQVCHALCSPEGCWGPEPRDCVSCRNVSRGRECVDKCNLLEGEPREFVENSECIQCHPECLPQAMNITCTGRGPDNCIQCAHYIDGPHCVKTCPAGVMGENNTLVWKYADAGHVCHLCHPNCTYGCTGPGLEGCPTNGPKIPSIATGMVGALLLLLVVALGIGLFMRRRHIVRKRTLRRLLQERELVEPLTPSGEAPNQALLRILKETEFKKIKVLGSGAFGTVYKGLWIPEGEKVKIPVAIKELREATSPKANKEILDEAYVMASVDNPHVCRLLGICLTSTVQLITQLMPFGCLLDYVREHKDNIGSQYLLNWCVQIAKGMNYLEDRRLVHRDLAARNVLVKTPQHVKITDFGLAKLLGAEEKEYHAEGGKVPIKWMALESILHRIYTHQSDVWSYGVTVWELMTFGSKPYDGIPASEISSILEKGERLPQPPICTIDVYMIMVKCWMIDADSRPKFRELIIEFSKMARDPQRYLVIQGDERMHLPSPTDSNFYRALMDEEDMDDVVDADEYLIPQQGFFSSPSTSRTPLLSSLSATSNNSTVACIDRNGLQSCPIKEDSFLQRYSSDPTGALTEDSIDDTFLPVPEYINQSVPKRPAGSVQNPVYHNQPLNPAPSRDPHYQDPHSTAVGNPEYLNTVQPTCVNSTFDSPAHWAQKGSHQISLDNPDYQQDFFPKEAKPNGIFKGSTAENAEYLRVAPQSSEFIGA

MCF7 [16] = experiment: Induction of apoptosis in human MCF7 cells assessed as increase in caspase 3 activation by measuring fold increase in caspase 3 level by fluorescence based solid phase sandwich ELISA; assay type: functional
MCF7 [17] = experiment: Induction of apoptosis in human MCF7 cells assessed as increase in caspase 9 activation by measuring fold increase in caspase 9 level by fluorescence based solid phase sandwich ELISA; assay type: functional
MCF7 [18] = experiment: Induction of apoptosis in human MCF7 cells assessed as early apoptotic cells after 24 hrs by Annexin V-FITC/propidium iodide staining-based FACS analysis (reference value: 0.29%); assay type: functional
MCF7 [19] = experiment: Induction of apoptosis in human MCF7 cells assessed as necrotic cells after 24 hrs by Annexin V-FITC/propidium iodide staining-based FACS analysis (reference value: 0.15%); assay type: functional
MCF7 [20] = experiment: Induction of apoptosis in human MCF7 cells assessed as viable cells after 24 hrs by Annexin V-FITC/propidium iodide staining-based FACS analysis (reference value: 99.34%); assay type: functional
MCF7 [21] = experiment: Induction of apoptosis in human MCF7 cells assessed as late apoptotic cells after 24 hrs by Annexin V-FITC/propidium iodide staining-based FACS analysis (reference value: 0.22%); assay type: functional
MCF7 [22] = experiment: Cell cycle arrest in human MCF7 cells assessed as accumulation at G2/M phase at IC50 after 24 hrs by propidium iodide staining based FACS analysis (reference value: 4.82%); assay type: functional
MCF7 [23] = experiment: Induction of apoptosis in human MCF7 cells after 24 hrs by Annexin V-FITC/propidium iodide staining-based FACS analysis; assay type: functional, cell-based
DNA topoisomerase II [24] = biological target: T1, DNA topoisomerase II; experiment: Inhibition of DNA topoisomerase 2 in human MCF7 cells at 1 uM incubated for 18 to 24 hrs by kinase assay relative to control; assay type: cell-based
DNA topoisomerase II [25] = biological target: T1, DNA topoisomerase II; experiment: Inhibition of DNA topoisomerase 2 in human MCF7 cells incubated for 18 to 24 hrs by kinase assay; assay type: cell-based
HeLa [26] = experiment: Induction of apoptosis in human HeLa cells assessed as increase in caspase 9 activation by measuring fold increase in caspase 9 level by fluorescence based solid phase sandwich ELISA; assay type: functional
HeLa [27] = experiment: Induction of apoptosis in human HeLa cells assessed as increase in caspase 3 activation by measuring fold increase in caspase 3 level by fluorescence based solid phase sandwich ELISA; assay type: functional
[28] = Homo sapiens, HCT-116, read-out: IC50
[29] = Homo sapiens, HepG2, read-out: IC50
[30] = Homo sapiens, MCF7, read-out: IC50
[31] = Homo sapiens, HeLa, read-out: IC50

Cc1ccc(-c2cc(COC(c3cccs3)c3cc4ccccc4nc3Cl)on2)cc1 (stereo not drawn)
growth inhibition (GI) (HCT-116 [1]): 43.91%
IC50 (MCF7 [2]; mcf7): Not Active
growth inhibition (GI) (HepG2 [3]): 31.77%
growth inhibition (GI) (HeLa [4]): <10%
IC50 (HeLa [5]; hela): Not Active
IC50 (HCT-116 [6]; [28]): 115 µM
growth inhibition (GI) (MCF7 [7]): 22.03%
IC50 (HepG2 [8]; hepg2): Not Active

COc1ccc(-c2cc(COC(c3cccs3)c3cc4ccccc4nc3Cl)on2)cc1OC (stereo not drawn)
growth inhibition (GI) (HCT-116 [1]): <10%
growth inhibition (GI) (HepG2 [3]): <10%
growth inhibition (GI) (HeLa [4]): <10%
growth inhibition (GI) (MCF7 [7]): <10%

FC(F)(F)c1ccc(-n2cc(COC(c3cccs3)c3cc4ccccc4nc3Cl)nn2)cc1 (stereo not drawn)
growth inhibition (GI) (HCT-116 [1]): 35.86%
growth inhibition (GI) (HepG2 [3]): <10%
growth inhibition (GI) (HeLa [4]): <10%
growth inhibition (GI) (MCF7 [7]): <10%

Oc1ccc(-c2cc(COC(c3cccs3)c3cc4ccccc4nc3Cl)on2)cc1 (stereo not drawn)
growth inhibition (GI) (HCT-116 [1]): 14.27%
IC50 (MCF7 [2]; mcf7): Not Active
growth inhibition (GI) (HepG2 [3]): 64.51%
growth inhibition (GI) (HeLa [4]): <10%
IC50 (HeLa [5]; hela): Not Active
IC50 (HCT-116 [6]; hct-116): Not Active
growth inhibition (GI) (MCF7 [7]): <10%
IC50 (HepG2 [8]; [29]): 178 µM

Clc1nc2ccccc2cc1C(OCc1ccc(Br)cc1)c1cccs1 (stereo not drawn)
growth inhibition (GI) (HCT-116 [1]): 21.98%
growth inhibition (GI) (HepG2 [3]): <10%
growth inhibition (GI) (HeLa [4]): 30.89%
growth inhibition (GI) (MCF7 [7]): <10%

FC(F)(F)c1cccc(COC(c2cccs2)c2cc3ccccc3nc2Cl)c1 (stereo not drawn)
growth inhibition (GI) (HCT-116 [1]): 23.22%
IC50 (MCF7 [2]; [30]): 101 µM
growth inhibition (GI) (HepG2 [3]): <10%
growth inhibition (GI) (HeLa [4]): 42.42%
IC50 (HeLa [5]; hela): Not Active
IC50 (HCT-116 [6]; hct-116): Not Active
growth inhibition (GI) (MCF7 [7]): 52.9%
IC50 (HepG2 [8]; hepg2): Not Active

COc1ccc(-c2cc(COC(c3cccs3)c3cc4ccccc4nc3Cl)on2)cc1 (stereo not drawn)
growth inhibition (GI) (HCT-116 [1]): 20.31%
growth inhibition (GI) (HepG2 [3]): 17.93%
growth inhibition (GI) (HeLa [4]): <10%
growth inhibition (GI) (MCF7 [7]): <10%

COc1ccc(-n2cc(COC(c3cccs3)c3cc4ccccc4nc3Cl)nn2)cc1 (stereo not drawn)
growth inhibition (GI) (HCT-116 [1]): 32.52%
growth inhibition (GI) (HepG2 [3]): <10%
growth inhibition (GI) (HeLa [4]): <10%
growth inhibition (GI) (MCF7 [7]): <10%

Clc1ccc(COC(c2cccs2)c2cc3ccccc3nc2Cl)cc1 (stereo not drawn)
inhibition (DNA topoisomerase II [9]): 84.7%
growth inhibition (GI) (HCT-116 [1]): <10%
IC50 (MCF7 [2]; [30]): 28.3 µM
inhibition (DNA topoisomerase II [10]): 36.3%
inhibition (DNA topoisomerase II [11]): 93.2%
Activity (MCF7 [12]): 44.28%
Activity (MCF7 [13]): 15.35%
Activity (MCF7 [14]): 17.05%
growth inhibition (GI) (HepG2 [3]): <10%
IC50 [15]: 3.66 µM
fold change (FC) (MCF7 [16]): 33.7
growth inhibition (GI) (HeLa [4]): 30.41%
fold change (FC) (MCF7 [17]): 29
Activity (MCF7 [18]): 6.69%
IC50 (HeLa [5]; hela): Not Active
Activity (MCF7 [19]): 1.6%
Activity (MCF7 [20]): 82.72%
Activity (MCF7 [21]): 8.67%
Activity (MCF7 [22]): 23.14%
IC50 (HCT-116 [6]; hct-116): Not Active
Activity (MCF7 [23]): Dose-dependent effect
inhibition (DNA topoisomerase II [24]): 63.3%
growth inhibition (GI) (MCF7 [7]): 47.94%
IC50 (DNA topoisomerase II [25]): 0.44 µM
IC50 (HepG2 [8]; hepg2): Not Active

C#CCOC(c1cccs1)c1cc2ccccc2nc1Cl (stereo not drawn)
IC50 (MCF7 [2]; [30]): > 100 µM
IC50 (HeLa [5]; [31]): 34.7 µM
IC50 (HCT-116 [6]; [28]): > 100 µM
IC50 (HepG2 [8]; [29]): > 100 µM

O=[N+]([O-])c1ccc(-n2cc(COC(c3cccs3)c3cc4ccccc4nc3Cl)nn2)cc1 (stereo not drawn)
growth inhibition (GI) (HCT-116 [1]): <10%
growth inhibition (GI) (HepG2 [3]): <10%
growth inhibition (GI) (HeLa [4]): <10%
growth inhibition (GI) (MCF7 [7]): <10%

Clc1nc2ccccc2cc1C(OCc1ccccc1)c1cccs1 (stereo not drawn)
growth inhibition (GI) (HCT-116 [1]): <10%
IC50 (MCF7 [2]; [30]): 108 µM
growth inhibition (GI) (HepG2 [3]): <10%
growth inhibition (GI) (HeLa [4]): <10%
IC50 (HeLa [5]; hela): Not Active
IC50 (HCT-116 [6]; hct-116): Not Active
growth inhibition (GI) (MCF7 [7]): 45.63%
IC50 (HepG2 [8]; hepg2): Not Active

COc1cc(-c2cc(COC(c3cccs3)c3cc4ccccc4nc3Cl)on2)cc(OC)c1OC (stereo not drawn)
growth inhibition (GI) (HCT-116 [1]): <10%
growth inhibition (GI) (HepG2 [3]): 14.57%
growth inhibition (GI) (HeLa [4]): <10%
growth inhibition (GI) (MCF7 [7]): <10%

O=c1[nH]cc(F)c(=O)[nH]1 [FLUOROURACIL]
fold change (FC) (HeLa [26]): 94.4
IC50 (MCF7 [2]; [30]): > 100 µM
fold change (FC) (MCF7 [17]): 26 - 26.1
IC50 (HeLa [5]; [31]): 20.4 µM
IC50 (HCT-116 [6]; [28]): 63.9 µM
IC50 (HepG2 [8]; [29]): > 100 µM

Cc1cc(C)c(COC(c2cccs2)c2cc3ccccc3nc2Cl)c(C)c1 (stereo not drawn)
growth inhibition (GI) (HCT-116 [1]): 26.37%
growth inhibition (GI) (HepG2 [3]): 24.76%
growth inhibition (GI) (HeLa [4]): 42.48%
growth inhibition (GI) (MCF7 [7]): 21.49%

Cc1ccc(-n2cc(COC(c3cccs3)c3cc4ccccc4nc3Cl)nn2)cc1 (stereo not drawn)
growth inhibition (GI) (HCT-116 [1]): 13.03%
growth inhibition (GI) (HepG2 [3]): 18.78%
growth inhibition (GI) (HeLa [4]): <10%
growth inhibition (GI) (MCF7 [7]): <10%

Clc1ccc(-n2cc(COC(c3cccs3)c3cc4ccccc4nc3Cl)nn2)cc1 (stereo not drawn)
growth inhibition (GI) (HCT-116 [1]): 23.13%
growth inhibition (GI) (HepG2 [3]): 8.39%
growth inhibition (GI) (HeLa [4]): <10%
growth inhibition (GI) (MCF7 [7]): <10%

CNC(=O)c1cc(Oc2ccc(NC(=O)Nc3ccc(Cl)c(C(F)(F)F)c3)cc2)ccn1 [SORAFENIB]
fold change (FC) (HeLa [27]): 35.5
fold change (FC) (MCF7 [16]): 34.2

Cc1cc(C)cc(-c2cc(COC(c3cccs3)c3cc4ccccc4nc3Cl)on2)c1 (stereo not drawn)
growth inhibition (GI) (HCT-116 [1]): <10%
growth inhibition (GI) (HepG2 [3]): <10%
growth inhibition (GI) (HeLa [4]): <10%
growth inhibition (GI) (MCF7 [7]): <10%
